Consider 22 compounds from US20080249130A1, “Gut microsomal triglyceride transport protein inhibitors” (Sirtris Pharmaceuticals, Inc., priority 2007, published 2008).

Several values for one entry are separate records, joined by “and”; a condition that tells them apart may be missing. Equal entries are not always repeated. Where two headings read alike, the source gives them in different places. A value given as a limit tells only on which side of the number the result lay.

The test system of test [1] is secretion of ApoB by HepG2 cells. Kind of test: ApoB secretion inhibition assay in HepG2 cells (ApoB ELISA). The conditions noted are these: Homo sapiens. The class given is cell-based, human. A digest of the protocol:
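HepG2 cells were serum-starved for 24 h, then treated for 24 h in DMEM with 1% BSA, 0.3 mM BSA-complexed oleic acid and 0.1% DMSO. Secreted ApoB in conditioned medium was measured by sandwich ELISA (A450). Viability was checked by AlamarBlue fluorescence.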

Test [2] has as its target T1, MTP (Homo sapiens, UniProt P55157). As to the kind of experiment: In vitro inhibition of MTP, triacylglycerol transfer assay with donor and acceptor liposomes (fluorescence). The class given is biochemical. The procedure: This assay is commercially available (Cat. #D400, Chylos Inc., New York). Liposomes are pipetted in 5 μl aliquots into the wells of a black fluorescence microtiter plate, followed by addition of 5 μl of water and an incubation of 2-5 min to allow the samples to equilibrate to rt. Next, 5 μl of compound dissolved in DMSO is added to the vesicles. The reaction is initated by the addition of 5 μl MTP, followed by incubation for 30 min at room temperature. […] Time of incubation can be increased to measure low activity in different samples. In such situations, samples are prepared just prior to measuring fluorescence units. For this purpose, isopropanol is added to substrate vesicles about 5 min prior to fluorescence measurement as the fluorescence readings in isopropanol decrease with time.

A further test has as its system C57BL/6 male mice. Kind of test: Murine food intake. The class given is in vivo. The conditions noted are these: mice fasted overnight, 100 mg/kg PO, out through 6 hours. The procedure: C57BL/6 male mice, 18-22 grams (Wilmington, Mass. Charles River Labs), 10 mice per group, are fasted overnight (16 hrs). Mice are dosed PO at indicated dose (10 animals vehicle and 10 animals receive 100 mg/kg of test compound) and a preweighed amount of food is given to animals. Food is weighed every hour up to 6 hrs. Blood is collected at 2 to 6 hours.

For test [3], the target named is T1, MTP. The conditions noted are these: As referenced in Wetterau et al., Science 282: 751, 1998; read-out: gMTP IC50 Triacylglycerol Transfer Assay (Example 3); cited from earlier work.
[4] abbreviates: HepG2, Table 6, assay of Example 2, read-out: IC50 ApoB Assay.
[5] abbreviates: Table 6, assay of Example 3, read-out: IC50 Enzyme Assay.
The mark [6] stands for this setting: HepG2, Tables 2-5, second symbol of the cell, read-out: IC50 Apo B Secretion Assay (Example 2).
Where [7] appears, read: Tables 2-5, first symbol of the cell, read-out: IC50 Tri-acylglycerol (TAG) Transfer Assay (Example 3).

T1 sequence (P55157 19-894, species assumed): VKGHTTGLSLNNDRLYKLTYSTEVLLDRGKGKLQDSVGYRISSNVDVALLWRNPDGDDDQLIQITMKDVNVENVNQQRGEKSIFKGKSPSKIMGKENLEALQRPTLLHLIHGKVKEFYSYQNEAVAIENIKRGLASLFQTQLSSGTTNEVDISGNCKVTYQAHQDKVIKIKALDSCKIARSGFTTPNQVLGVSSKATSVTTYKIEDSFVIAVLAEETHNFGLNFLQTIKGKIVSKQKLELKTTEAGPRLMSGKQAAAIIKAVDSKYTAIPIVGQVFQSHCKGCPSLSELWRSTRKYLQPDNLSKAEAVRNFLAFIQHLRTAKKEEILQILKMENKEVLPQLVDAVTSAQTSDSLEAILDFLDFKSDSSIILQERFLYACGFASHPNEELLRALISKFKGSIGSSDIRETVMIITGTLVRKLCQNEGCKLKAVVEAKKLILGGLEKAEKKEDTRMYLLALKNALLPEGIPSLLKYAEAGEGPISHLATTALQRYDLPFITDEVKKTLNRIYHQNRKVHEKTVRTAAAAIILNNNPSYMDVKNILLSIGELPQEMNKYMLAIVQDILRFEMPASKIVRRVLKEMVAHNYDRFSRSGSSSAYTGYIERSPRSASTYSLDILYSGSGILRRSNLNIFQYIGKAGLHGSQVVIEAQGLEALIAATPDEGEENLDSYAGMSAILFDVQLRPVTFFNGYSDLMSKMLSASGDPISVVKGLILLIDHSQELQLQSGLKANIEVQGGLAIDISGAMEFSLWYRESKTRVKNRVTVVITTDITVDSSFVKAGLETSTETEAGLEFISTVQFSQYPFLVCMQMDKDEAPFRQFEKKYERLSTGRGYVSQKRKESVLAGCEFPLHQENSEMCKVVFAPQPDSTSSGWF
T1 sequence (P07237 18-508 partner, species assumed): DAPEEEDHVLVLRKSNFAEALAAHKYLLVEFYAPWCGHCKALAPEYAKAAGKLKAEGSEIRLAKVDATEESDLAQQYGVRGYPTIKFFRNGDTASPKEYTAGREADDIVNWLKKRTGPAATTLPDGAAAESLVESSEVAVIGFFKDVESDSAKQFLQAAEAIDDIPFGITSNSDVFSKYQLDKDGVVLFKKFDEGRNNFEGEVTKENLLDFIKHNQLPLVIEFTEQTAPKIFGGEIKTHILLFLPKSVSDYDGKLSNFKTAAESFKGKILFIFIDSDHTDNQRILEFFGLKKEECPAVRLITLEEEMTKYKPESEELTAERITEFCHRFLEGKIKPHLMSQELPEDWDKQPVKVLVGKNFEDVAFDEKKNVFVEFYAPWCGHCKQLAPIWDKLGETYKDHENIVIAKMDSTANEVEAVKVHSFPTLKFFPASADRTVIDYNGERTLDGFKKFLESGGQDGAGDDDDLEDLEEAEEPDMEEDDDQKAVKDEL

By IC50 is commonly meant the midpoint of a concentration-inhibition curve. For the compound `CC(C)c1ccc(-c2ccccc2C(=O)Nc2ccc3nc(C(=O)N[C@H](C(=O)N(C)Cc4ccc(F)cc4)c4ccccc4)sc3c2)cc1` [Compound 54, (S)—N-(2-((4-fluorobenzyl)(methyl)amino)-2-oxo-1-phenylethyl)-6-(4′-isopropylbiphenyl-2-ylcarboxamido)benzo[d]thiazole-2-carboxamide], the IC50 in test [1] (setting [4]) is 6.2 nM; on MTP [2] (setting [5]), 15.3 nM and 11.2 nM.
`CC(C)c1ccc(-c2ccccc2C(=O)Nc2ccc3nc(C(=O)N[C@H](C(=O)N4CCCC4)c4ccccc4)sc3c2)cc1` [Compound 55, (S)-6-(4′-isopropylbiphenyl-2-ylcarboxamido)-N-(2-oxo-1-phenyl-2-(pyrrolidin-1-yl)ethyl)benzo[d]thiazole-2-carboxamide]: the IC50 in test [1] (setting [4]) was 6.7 nM; at MTP [2] (setting [5]), 8.1 nM and 3.9 nM.
In the case of `Cc1csc2nc(-c3ccccc3C(=O)Nc3ccc4nc(C(=O)N[C@H](C(=O)N(C)Cc5ccc(F)cc5)c5ccccc5)sc4c3)cn12` [Compound 64, (S)—N-(2-((4-fluorobenzyl)(methyl)amino)-2-oxo-1-phenylethyl)-6-(2-(3-methylimidazo[2,1-b]thiazol-6-yl)benzamido)benzo[d]thiazole-2-carboxamide], the IC50 in test [1] (setting [4]) turned out to be 6.9 nM; on MTP [2] (setting [5]), 95.8 nM.
For the compound `CN(Cc1ccc(F)cc1)C(=O)[C@@H](NC(=O)c1nc2ccc(NC(=O)c3ccccc3-c3nc(C(C)(C)C)cs3)cc2s1)c1ccccc1` [Compound 66, (S)-6-(2-(4-tert-butylthiazol-2-yl)benzamido)-N-(2-((4-fluorobenzyl)(methyl)amino)-2-oxo-1-phenylethyl)benzo[d]thiazole-2-carboxamide], the half-inhibitory concentration (IC50) was found to be 4 nM in test [1] (setting [4]) and 4.6 nM on MTP [2] (setting [5]).
For `CC(C)(C)c1ccc(-c2ccccc2C(=O)NC23CCC(C(=O)N[C@H](C(=O)N4CCCC4)c4ccccc4)(CC2)CC3)cc1` [Compound 67, (S)-4-(4′-tert-butylbiphenyl-2-ylcarboxamido)-N-(2-oxo-1-phenyl-2-(pyrrolidin-1-yl)ethyl)bicyclo[2.2.2]octane-1-carboxamide], in that order: 1.8 nM and 2.4 nM.
On to `CN(Cc1ccc(F)cc1)C(=O)[C@@H](NC(=O)C12CCC(NC(=O)c3ccccc3-c3ccc(C(C)(C)C)cc3)(CC1)CC2)c1ccccc1` [Compound 68, (S)-4-(4′-tert-butylbiphenyl-2-ylcarboxamido)-N-(2-((4-fluorobenzyl)(methyl)amino)-2-oxo-1-phenylethyl)bicyclo[2.2.2]octane-1-carboxamide], for which the IC50 in test [1] (setting [4]) is 5.6 nM; at MTP [2] (setting [5]) it was 9.9 nM.
For `CCCN(C)C(=O)[C@@H](NC(=O)C12CCC(CNC(=O)c3cccc(C)c3-c3ccc(C(C)(C)C)cc3)(CC1)CC2)c1ccccc1` [Compound 73], in that order: 11.8 nM and 3.5 nM.
For `Cc1cccc(C(=O)NCC23CCC(C(=O)N[C@H](C(=O)N(C)Cc4ccc(F)cc4)c4ccccc4)(CC2)CC3)c1-c1ccc(C(C)(C)C)cc1` [Compound 75], the figures for the IC50 (in test [1] (setting [4]); on MTP [2] (setting [5])) were 5.9 nM and 56.2 nM, respectively.
For `COc1cccc(C(=O)Nc2ccc3nc(C(=O)N[C@H](C(=O)N4CCCC4)c4ccccc4)sc3c2)c1-c1ccc(C(C)(C)C)cc1` [Compound 77], in that order: 1.2 nM and 3.8 nM.
In the case of `COc1cccc(C(=O)Nc2ccc3nc(C(=O)N[C@H](C(=O)N(C)Cc4ccc(F)cc4)c4ccccc4)sc3c2)c1-c1ccc(C(C)(C)C)cc1` [Compound 78], the IC50 in test [1] (setting [4]) was 2.4 nM; on MTP [2] (setting [5]) it was 20.5 nM and 7.9 nM.
With `COc1cccc(C(=O)Nc2ccc3nc(C(=O)N[C@H](C(=O)N4CCCC4)c4ccccc4)sc3c2)c1-c1ccc(C(F)(F)F)cc1` [Compound 79], the IC50 in test [1] (setting [4]) came to 2.7 nM; on MTP [2] (setting [5]), 3.1 nM.
With `Cc1cccc(C(=O)Nc2nc(-c3ccc(C(=O)N[C@H](C(=O)N4CCCC4)c4ccccc4)cc3)cs2)c1-c1ccc(C(C)(C)C)cc1` [Compound 83], the IC50 in test [1] (setting [4]) was 13.2 nM; on MTP [2] (setting [5]) it was 10.2 nM.
In the case of `COc1cccc(C(=O)Nc2ccc3nc(C(=O)N[C@H](C(=O)N4CCCC4)c4ccccc4)sc3c2)c1-c1ccc(C(C)C)cc1` [Compound 84], the figures for the IC50 (in test [1] (setting [4]); at MTP [2] (setting [5])) were 1.1 nM and 3.6 nM, respectively.
For `Cc1cccc(C(=O)Nc2ccc3nc(C(=O)N[C@H](C(=O)N4CCCC4)c4ccccc4)sc3c2)c1-c1ccc(C(C)C)cc1` [Compound 85], in that order: 2.3 nM and 5.1 nM.
`Cc1cccc(C(=O)Nc2ccc3nc(C(=O)N[C@H](C(=O)N(C)Cc4ccc(F)cc4)c4ccccc4)sc3c2)c1-c1ccc(C(C)C)cc1` [Compound 86]: the IC50 is 1.5 nM in test [1] (setting [4]); 9.9 nM and 5.2 nM at MTP [2] (setting [5]).
As for `CN(Cc1ccc(F)cc1)C(=O)[C@@H](NC(=O)c1ccc2nc(NC(=O)c3ccccc3C3CCNCC3)ccc2c1)c1ccccc1` [Compound C1], the IC50 (in test [1] (setting [6]); at MTP [2] (setting [7])) was more than 1010 nM in each case. The “drop in food intake compared to control” value in the test on C57BL/6 male mice is reported as approximately 50%.
With `CN(Cc1ccc(F)cc1)C(=O)[C@@H](NC(=O)c1ccc2nc(NC(=O)c3ccccc3C3CCNC3)ccc2c1)c1ccccc1` (stereo partly shown) [Compound C3], the IC50 in test [1] (setting [6]) was more than 1010 nM; at MTP [2] (setting [7]) it was 101 to 1000 nM.
In the case of `CN(Cc1ccc(F)cc1)C(=O)[C@@H](NC(=O)c1ccc2nc(NC(=O)c3ccccc3-c3cn4ccsc4n3)ccc2c1)c1ccccc1` [Compound C5], the IC50 (in test [1] (setting [6]); at MTP [2] (setting [7])) was less than 100 nM throughout.
A word on the inhibition: it is the relative decrease from the control value, in per cent. With `O=C1C[C@@H](c2ccc(O)cc2)Oc2cc(O)cc(O)c21` [compound 1, Naringenin, reference compound], the IC50 in test [1] (HepG2, Table 1, HepG2 cells, read-out: gMTP IC50 ApoB Secretion Assay (Example 2)) amounted to 200000 nM. The inhibition at 200 µM in test [1] (at 200 μM, HepG2 cells) is 50%; on MTP [2] (at 200 μM, read-out: inhibition in Triacylglycerol Transfer Assay (Example 3)), more than 90%. For the same compound, the “inhibition in Triacylglycerol Transfer Assay (Example 3)” value against MTP [2] (at 200 μM) was more than 90% inhibitionat 200 μM.
As to `O=C(NC1CCN(CCCCC2(C(=O)NCC(F)(F)F)c3ccccc3-c3ccccc32)CC1)c1ccccc1-c1ccc(C(F)(F)F)cc1` [compound 2, N-(2,2,2-trifluoroethyl)-9-(4-(4-(4′-(trifluoromethyl)biphenyl-2-ylcarboxamido)piperidin-1-yl)butyl)-9H-fluorene-9-carboxamide], at MTP [3], the IC50 was 0.5 nM.
Consider `CN(Cc1ccc(F)cc1)C(=O)[C@@H](NC(=O)C12CCC(CNC(=O)c3ccccc3-c3ccc(C(C)(C)C)cc3)(CC1)CC2)c1ccccc1` [drawing 120/drawing 118], for which the figures for the IC50 (in test [1] (setting [6]); at MTP [2] (setting [7])) were 101 to 1000 nM and less than 100 nM, respectively.
For the compound `CC(C)(C)c1ccc(-c2ccccc2C(=O)Nc2ccc3nc(C(=O)N[C@H](C(=O)N4CCCC4)c4ccccc4)sc3c2)cc1` [drawing 126/drawing 123], the IC50 (in test [1] (setting [6]); at MTP [2] (setting [7])) was less than 100 nM in each case.
